Columns and labels:
[1] = Peroxide value (PV) by chlorimetric ferric thiocyanate method after storage; format: physicochemical; conditions: after storage in open glass; spectrophotometric ferric thiocyanate method; unit assumed
Description: The present invention also contemplates stabilization of CLA containing compounds, including but not limited to, CLA, esters of CLA, and triglycerides of CLA by preventing oxidation of the compounds. The present invention is not limited to any one mechanism. Indeed, an understanding of the mechanism of the invention is not necessary to produce the composition or perform the methods of the present invention. […] After storage in open glass, the PV of CLA was 32; in comparison, the value for linoleic acid was 370.

[2] = tested on: rat mammary tumorigenesis; conditions: administration of CLA; Birt et al. 1992; cited from earlier work
[3] = diets containing 0.5 percent CLA; pigs, mice, humans; U.S. Pat. No. 5,554,646; cited from earlier work
[4] = tested on: human melanoma, colorectal and breast cancer cells; conditions: in vitro; cited from earlier work

Compound	peroxide value (PV) [1] [meq/kg]	rat mammary tumorigenesis [2]	fat content [3]	cytotoxicity [4]
CCCCC/C=C\C/C=C\CCCCCCCC(=O)O [linoleic acid]	370	–	–	–
conjugated linoleic acid [CLA]	32	inhibits rat mammary tumorigenesis	significant drop in fat content	strong cytotoxic agent
